From patent publication US20070004680A1, “Compositions and methods for modulating gated ion channels” (PainCeptor Pharma Corporation, priority 2004, published 2007)

Legend:
Male Sprague-Dawley rats = test: Formalin test (flinching behaviour); assay type: in vivo, rat; conditions: 10 mg/kg i.v. 10 min prior to formalin in the hind limb; compared with vehicle; n=8
Method: Male Sprague-Dawley rats (body weight, 180-300 g) are housed together in groups of four animals under standard conditions with unrestricted access to food and water. Rats are housed in the room in which the testing procedure is performed to minimize any stress response to novel environmental cues. All experiments are conducted according to the ethical guidelines for investigations of experimental pain in conscious animals (Zimmerman, 1983).
Separate groups of rats are used for the different experiments such that each animal is used on one occasion only. All experiments for a given compound are performed using age matched animals in an attempt to avoid variability between experiments. Prior to initiation of the formalin test, 4 rats are habituated in separate testing cages for 15-20 min. […] On the basis of the response pattern, two distinct phases of nociceptive behavior are observed, characterized by flinching of the affected paw and scored (Blackburn-Munro et al., Eur J Pharmacol. 2002 Jun. 12;445(3):231-8). […]
All data is analysed using Sigmastat 2.03 statistical software (Jandel Scientific GmbH, Germany) and expressed as mean±S.E.M. Two Way Repeated Measures Analysis of Variance (Two Way RM ANOVA) is used to analyse formalin test data and where applicable, this is followed by post-hoc analysis using Bonferroni's t-test to allow comparisons between groups. […]

ASIC1a = molecular target: T1, ASIC1a (Homo sapiens, UniProt P78348); test: FLIPR calcium assay (MES-induced calcium response), ASIC1a expressing HEK293 cells; assay type: cell-based; conditions: HEK cells
T1 construct: host or cells: HEK293
T1 sequence (P78348 1-528): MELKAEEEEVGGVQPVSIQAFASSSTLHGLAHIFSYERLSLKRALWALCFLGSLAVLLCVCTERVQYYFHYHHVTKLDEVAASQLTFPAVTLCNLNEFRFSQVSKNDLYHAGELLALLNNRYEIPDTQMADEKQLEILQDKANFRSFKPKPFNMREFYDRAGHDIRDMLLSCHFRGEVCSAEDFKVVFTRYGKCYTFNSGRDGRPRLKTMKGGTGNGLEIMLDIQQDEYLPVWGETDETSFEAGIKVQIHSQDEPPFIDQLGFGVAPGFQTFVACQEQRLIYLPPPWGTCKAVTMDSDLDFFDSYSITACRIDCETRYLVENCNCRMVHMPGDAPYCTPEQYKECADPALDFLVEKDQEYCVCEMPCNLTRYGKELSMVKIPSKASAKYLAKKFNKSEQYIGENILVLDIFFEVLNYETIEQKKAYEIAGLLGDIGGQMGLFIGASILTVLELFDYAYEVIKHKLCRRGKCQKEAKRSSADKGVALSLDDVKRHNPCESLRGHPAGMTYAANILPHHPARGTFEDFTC
Method: ASIC1a expressing HEK293 cells are grown in culture medium (DMEM with 10% FBS), in polystyrene culture flasks ([…]) at 37° C. in a humidified atmosphere of 5% CO2. Confluency of cells should be 80-90% on day of plating. Cells are rinsed with 10 ml of PBS and cells are re-suspended by addition of culture medium and trituration with a 25 ml pipette.
The cells are seeded at a density of approximately 1×10^6 cells/ml (100 μl/well) in black-walled, clear bottom, 96-well plates pre-treated with 10 mg/l poly-D-lysin (75 μl/well for ≧30 min). Plated cells were allowed to proliferate for 24 h before loading with dye.
Fluo-4/AM (1 mg, Molecular Probes) is added 912 μl DMSO. The Fluo-4/AM stock solution (1 mM) is diluted with culture medium to a final concentration of 2 μM.
The culture medium is aspirated from the wells, and 50 μl of the Fluo-4/AM loading solution is added to each well. The cells are incubated at 37° C. for 30 min.
After the loading period, the loading solution is aspirated and the cells are washed twice with 100 μl modified FLIPR medium (145 mM NaCl, 5 mM KCl, 5 mM CaCl2, 1 mM MgCl2, 10 mM HEPES, pH 7.4) to remove extracellular dye. Following the second wash, 100 μl modified FLIPR medium is added to each well and the fluorescence is measured in FLIPR.
Temperature: Room temperature (20-22° C.)
First addition: 50 μl test solution at a rate of 30 μl/sec and a starting height of […]
Second addition: 50 μl MES solution (20 mM, 5 mM final concentration) at a rate of 35 μl/sec and a starting height of 150 μl.
Reading intervals: pre-incubation—10 sec×7 and 3 sec×3 antagonist phase—3 sec×17 and 10 sec×12
Addition plates (compound test plate and MES plate) are placed on the right and left positions in the FLIPR tray, respectively. Cell plates are placed in the middle position and the ASIC1a program is effectuated. FLIPR will then take the appropriate measurements in accordance with the interval settings above. Fluorescence obtained after stimulation is corrected for the mean basal fluorescence (in modified FLIPR medium). […]

Question: What does the source list for `C=CC1CN2CCC1CC2[C@@H](OC(=O)CCC1CCCC1)c1ccnc2ccccc12` (stereo partly drawn) [Compound A]?
Answer: flinching behaviour in Formalin test (Male Sprague-Dawley rats): attenuated flinching behaviour; inhibition at 1 µM (ASIC1a; HEK293, at 1 μM, FLIPR): 30 to 45%; IC50 (ASIC1a; MES-induced calcium response, peak values): 1000 to 4000 nM
